According to patent US9763960B2, “Wafer comprising steroid hormones” (LTS Lohmann Theraple-Systeme AG, priority 2005, dated 2017):

Assay: i.v. administration of 0.5 mg MENT (reference for bioavailability)
Type: in vivo
Conditions: after i.v. admin. of 0.5 mg MENT

**Q.** For `C[C@@H]1CC2=CC(=O)CC[C@@H]2[C@H]2CC[C@]3(C)[C@@H](O)CC[C@H]3[C@@H]21` [MENT, 7α-methyl-19-nortestosterone], which “AUC(0-tlast) geomean dose-normalized” value is on record?
**A.** 4.98 ng·h/mL
